Assay results: patent US9920090B2, “Betulinic acid derivatives with HIV maturation inhibitory activity” (priority 2014, dated 2018)

test system: recombinant NL4-3 virus (nef section replaced with Renilla luciferase gene, Gag P373S); experiment: HIV Cell Culture Assay (luciferase reporter virus in MT-2 cells); format: cell-based; details: NL43
Method: MT-2 cells and 293T cells were obtained from the NIH AIDS Research and Reference Reagent Program. MT-2 cells were propagated in RPMI 1640 media supplemented with 10% heat inactivated fetal bovine serum, […]. The 293T cells were propagated in DMEM media supplemented with 10% heat inactivated fetal bovine serum (FBS), 100 units/mL penicillin G and 100 μg/mL streptomycin. The proviral DNA clone of NL4-3 was obtained from the NIH AIDS Research and Reference Reagent Program. A recombinant NL4-3 virus, in which a section of the nef gene from NL4-3 was replaced with the Renilla luciferase gene, was used as a reference virus. In addition, residue Gag P373 was converted to P373S. Briefly, the recombinant virus was prepared by transfection of the altered proviral clone of NL4-3. Transfections were performed in 293T cells using LipofectAMINE PLUS from Invitrogen (Carlsbad, Calif.), according to manufacturer's instruction. The virus was titered in MT-2 cells using luciferase enzyme activity as a marker. Luciferase was quantitated using the Dual Luciferase kit from Promega (Madison, Wis.), with modifications to the manufacturer's protocol. The diluted Passive Lysis solution was pre-mixed with the re-suspended Luciferase Assay Reagent and the re-suspended Stop & Glo Substrate (2:1:1 ratio). Fifty (50) μL of the mixture was added to each aspirated well on assay plates and luciferase activity was measured immediately on a Wallac TriLux (Perkin-Elmer). Antiviral activities of inhibitors toward the recombinant virus were quantified by measuring luciferase activity in cells infected for 4-5 days with NLRluc recombinants in the presence serial dilutions of the inhibitor.

Point of comparison: `CC(C)[C@@H]1CC[C@]2(C(=O)O)CC[C@]3(C)[C@H](CC[C@@H]4[C@@]5(C)[C@H](O)C=C(c6ccc(C(=O)O)cc6)C(C)(C)[C@@H]5CC[C@]43C)[C@@H]12` [Example 6, (1S,3aS,5aR,5bR,7aS,11R,11aS,11bS,13aR,13bR)-9-(4-carboxyphenyl)-11-hydroxy-1-isopropyl-5a,5b,8,8,11a-pentamethyl-2,3,3a,4,5,5a,5b,6,7,7a,8,11,11a,11b,12,13,13a,13b-octadecahydro-1H-cyclopenta[a]chrysene-3a-carboxylic acid], EC50 1730 nM. Against it:
- C=C(C)[C@@H]1CC[C@]2(NCCN3CCS(=O)(=O)CC3)C[C@H](O)[C@]3(C)[C@H](CC[C@@H]4[C@@]5(C)CC=C(c6ccc(C(=O)O)cc6)C(C)(C)[C@@H]5C[C@H](O)[C@]43C)[C@@H]12 [Example 3, 4-((1R,3aS,5S,5aR,5bR,6S,7aR,11aS,11bR,13aR,13bR)-3a-((2-(1,1-dioxidothiomorpholino)ethyl)amino)-5,6-dihydroxy-5a,5b,8,8,11a-pentamethyl-1-(prop-1-en-2-yl)-2,3,3a,4,5,5a,5b,6,7,7a,8,11,11a,11b,12,13,13a,13b-octadecahydro-1H-cyclopenta[a]chrysen-9-yl)benzoic acid] — 100-fold lower, 17 nM
- CC(C)[C@@H]1CC[C@]2(C(=O)O)CC[C@]3(C)[C@H](CC[C@@H]4[C@@]5(C)C[C@@H]6O[C@]6(c6ccc(C(=O)O)cc6)C(C)(C)[C@@H]5CC[C@]43C)[C@@H]12 [Example 11, (1S,3aS,5aR,5bR,7aR,8aS,9aS,10aR,10bR,12aR,12bR)-8a-(4-carboxyphenyl)-1-isopropyl-5a,5b,8,8,10a-pentamethylicosahydro-1H-cyclopenta[7,8]chryseno[2,3-b]oxirene-3a-carboxylic acid] — within 1.5-fold, 1310 nM
- CC(C)[C@@H]1CC[C@]2(N)CC[C@]3(C)[C@H](CC[C@@H]4[C@@]5(C)C(=O)C=C(c6ccc(C(=O)O)cc6)C(C)(C)[C@@H]5CC[C@]43C)[C@@H]12 [Example 9, 4-((1S,3aS,5aR,5bR,7aS,11aS,11bS,13aR,13bR)-3a-amino-1-isopropyl-5a,5b,8,8,11a-pentamethyl-11-oxo-2,3,3a,4,5,5a,5b,6,7,7a,8,11,11a,11b,12,13,13a,13b-octadecahydro-1H-cyclopenta[a]chrysen-9-yl)benzoic acid] — 1400-fold lower, 1.2 nM
- CC(C)[C@@H]1CC[C@]2(C(=O)NCCCN3CCS(=O)(=O)CC3)CC[C@]3(C)[C@H](CC[C@@H]4[C@@]5(C)[C@H](F)C=C(c6ccc(C(=O)O)cc6)C(C)(C)[C@@H]5CC[C@]43C)[C@@H]12 [Example 8, 4-((1S,3aS,5aR,5bR,7aS,11R,11aS,11bS,13aR,13bR)-3a-((3-(1,1-dioxidothiomorpholino)propyl)carbamoyl)-11-fluoro-1-isopropyl-5a,5b,8,8,11a-pentamethyl-2,3,3a,4,5,5a,5b,6,7,7a,8,11,11a,11b,12,13,13a,13b-octadecahydro-1H-cyclopenta[a]chrysen-9-yl)benzoic acid] — 520-fold lower, 3.31 nM
- C=C(C)[C@@H]1CC[C@]2(C(=O)O)C[C@@H]3OC(C)(C)O[C@H]4C[C@H]5C(C)(C)C(c6ccc(C(=O)O)cc6)=CC[C@]5(C)[C@H]5CC[C@H]([C@@H]12)[C@]3(C)[C@]45C [Example 1, (1R,3aS,4aS,4a1R,7aS,7a1R,8aR,12aS,12bR,14aR,14bR)-10-(4-carboxyphenyl)-4a1,6,6,7a1,9,9,12a-heptamethyl-1-(prop-1-en-2-yl)-2,3,3a,4,4a,4a1,7a,7a1,8,8a,9,12,12a,12b,13,14,14a,14b-octadecahydro-1H-cyclopenta[1,2]chryseno[4,5-def][1,3]dioxepine-3a-carboxylic acid] — 43-fold lower, 40 nM
- C=C(C)[C@@H]1CC[C@]2(C(=O)O)C[C@H](O)[C@]3(C)[C@H](CC[C@@H]4[C@@]5(C)CC=C(c6ccc(C(=O)O)cc6)C(C)(C)[C@@H]5C[C@H](O)[C@]43C)[C@@H]12 [Example 2, (1R,3aS,5S,5aR,5bR,6S,7aR,11aS,11bR,13aR,13bR)-9-(4-carboxyphenyl)-5,6-dihydroxy-5a,5b,8,8,11a-pentamethyl-1-(prop-1-en-2-yl)-2,3,3a,4,5,5a,5b,6,7,7a,8,11,11a,11b,12,13,13a,13b-octadecahydro-1H-cyclopenta[a]chrysene-3a-carboxylic acid] — within 1.5-fold, 1560 nM
- CC(C)[C@@H]1CC[C@]2(C(=O)O)CC[C@]3(C)[C@H](CC[C@@H]4[C@@]5(C)[C@@H](O)C=C(c6ccc(C(=O)O)cc6)C(C)(C)[C@@H]5CC[C@]43C)[C@@H]12 [Example 5, (1S,3aS,5aR,5bR,7aS,11S,11aS,11bS,13aR,13bR)-9-(4-carboxyphenyl)-11-hydroxy-1-isopropyl-5a,5b,8,8,11a-pentamethyl-2,3,3a,4,5,5a,5b,6,7,7a,8,11,11a,11b,12,13,13a,13b-octadecahydro-1H-cyclopenta[a]chrysene-3a-carboxylic acid] — 4.2-fold lower, 410 nM
- CC(C)[C@@H]1CC[C@]2(NCCN3CCS(=O)(=O)CC3)CC[C@]3(C)[C@H](CC[C@@H]4[C@@]5(C)C(=O)C=C(c6ccc(C(=O)O)cc6)C(C)(C)[C@@H]5CC[C@]43C)[C@@H]12 [Example 10, 4-((1S,3aS,5aR,5bR,7aS,11aS,11bS,13aR,13bR)-3a-((2-(1,1-dioxidothiomorpholino)ethyl)amino)-1-isopropyl-5a,5b,8,8,11a-pentamethyl-11-oxo-2,3,3a,4,5,5a,5b,6,7,7a,8,11,11a,11b,12,13,13a,13b-octadecahydro-1H-cyclopenta[a]chrysen-9-yl)benzoic acid] — 1400-fold lower, 1.2 nM
- CC(C)[C@@H]1CC[C@]2(C(=O)O)CC[C@]3(C)[C@H](CC[C@@H]4[C@@]5(C)C(=O)C=C(c6ccc(C(=O)O)cc6)C(C)(C)[C@@H]5CC[C@]43C)[C@@H]12 [Example 4, (1S,3aS,5aR,5bR,7aS,11aS,11bS,13aR,13bR)-9-(4-carboxyphenyl)-1-isopropyl-5a,5b,8,8,11a-pentamethyl-11-oxo-2,3,3a,4,5,5a,5b,6,7,7a,8,11,11a,11b,12,13,13a,13b-octadecahydro-1H-cyclopenta[a]chrysene-3a-carboxylic acid] — 60-fold lower, 29 nM
